Measured values from patent US20100015245A1, “Combination of Copper Cations with Peroxides or Quaternary Ammonium Compounds for the Treatment of Biofilms” (priority 2008, published 2010).
“And” between values parts separate entries of the source, which are not always exact repeats. Equal values may be shown once. Read-outs that look alike come from different tables or passages of the source.

Experiments:
[1] = system: P. aeruginosa ATCC 15442 biofilms; assay: High-throughput biofilm susceptibility screening with checkerboard plates (Calgary Biofilm Device), OD650 endpoint; assay type: cell-based, Pseudomonas aeruginosa
[2] = system: microaerobic cultures of P. aeruginosa ATCC 15442; assay: Cell survival of microaerobic (anaerobic) planktonic cultures; assay type: cell-based, Pseudomonas aeruginosa; conditions: 1 mM CuSO4 and/or 25 ppm Polycide®, 48 h at 37° C., BHI broth
Experimental: (§1) FIGS. 6A-C. Cell survival and nitrate (NO3) reduction by anaerobic P. aeruginosa ATCC 15442 cultures grown in the presence of Cu^2+ and Polycide®, alone and in combination. An aerobic starter culture was grown overnight in TSB and this was diluted 1 in 500 to get a starting cell count of 1×10^7 CFU/mL for anaerobic cultures. These cells were grown in BHI broth, with and without the addition of 1 mM KNO3, for 6 h prior to the addition of 1 mM CuSO4, 25 ppm Polycide , or 1 mM CuSO4+25 ppm Polycide®. Following an additional 48 h incubation at 37° C., aliquots were removed to determine (FIG. 6A) mean viable cell counts and (FIG. 6B) log-killing. Remaining cells from anaerobic cultures were lysed and fractionated into cytosolic and membrane components. The cytosolic components were assayed for (FIG. 6C) nitrate reductase (NR) activity. In this figure, each bar represents the mean and standard deviation of 3 to 8 independent replicates. NR activity calculations were corrected for baseline shifts in spectrophotometric measurements caused by the presence of oxygen in water, which reacts with reduced methyl viologen over time.
Strains and growth media. All of the microbial strains used in this study are summarized in TABLE 1 and all were stored at −70° C. in Microbank™ vials (ProLab Diagnostics, Toronto, Canada) according to the manufacturer's directions. […]

nitrate reductase (NR) = assay: Nitrate reductase activity of cytosolic fractions of treated cultures (methyl viologen assay); assay type: biochemical, Pseudomonas aeruginosa; conditions: cells grown with 1 mM CuSO4 and/or 25 ppm Polycide®
Experimental: as §1
Protein fractionation and nitrate reduction assays. […] Nitrate reductase activity was determined spectrophotometrically at 575 nm for cytoplasmic fractions, using methyl viologen as an electron donor, as previously described (Jones et al., 1977; Magalon et al., 1998).

[3] = system: P. aeruginosa ATCC 27853 biofilms; assay: Confocal-laser scanning microscopy (CLSM) with Live/Dead staining of biofilms; assay type: cell-based, Pseudomonas aeruginosa; conditions: 8 mM Cu^2+ and/or 200 ppm Polycide®, qualitative
Experimental: Confocal-laser scanning microscopy (CLSM). Pegs were broken from the lid of the CBD using needle nose pliers. Cell viability staining of P. aeruginosa ATCC 27853 biofilms using the Live/Dead® BacLight™ Kit (Molecular Probes, Burlington, ON, Canada) was carried out according to the method as previously described (Harrison et al., 2007). Here, biofilms exposed to metals and/or biocides were rinsed twice with 0.9% saline and then stained with Syto-9 and propidium iodide at 30° C. for 30 min. Fluorescently labeled biofilms were placed in two drops of 0.9% saline on the surface of a glass coverslip. These pegs were examined using a Leica DM IRE2 spectral confocal and multiphoton microscope with a Leica TCS SP2 acoustic optical beam splitter (AOBS) (Leica Microsystems, Richmond Hill, ON, Canada) as previously described (Harrison el al., 2007). To eliminate artefacts associated with single wavelength excitation, Live/Dead® stained samples were sequentially scanned, frame-by-frame, first at 488 nm and then at 543 nm. Fluorescence emission was then sequentially collected in the green and red regions of the spectrum. […]
Up to this point, the inventors have assessed the antimicrobial action of Cu^2+ and Polycide® using viable cell counting; however, there is an alternate method of assessing biofilm cell survival: CLSM in conjunction with Live/Dead® staining. […]

[4] = 5 min exposure, double distilled water, single agent, median
[5] = 30 min exposure, double distilled water, single agent, median
[6] = 24 h exposure, 10% tryptic soy broth/0.9% NaCl, single agent, median

SMILES	Biofilm minimum bactericidal concentration (MBCb) [1]	Biofilm minimum bactericidal concentration (MBCb) [1, 4]	Biofilm minimum bactericidal concentration (MBCb) [1, 5]	Biofilm minimum bactericidal concentration (MBCb) [1, 6]	Effect on microaerobic cultures (viable cell counts, log-killing) [2]	Nitrate reduction capacity / NR activity of cell lysates (nitrate reductase (NR))	Bacterial cell survival in biofilms by Live/Dead staining [3]
O=S(=O)([O-])[O-].[Zn+2] [Zn^2 +, zinc sulfate]	>31 mM	–	–	–	–	–	–
O=[N+]([O-])[O-].[Ag+] [Ag^+, silver nitrate]	–	>19 mM	>19 mM	>19 mM	–	–	–
CC(C)O [Isopropyl Alcohol, Isopropyl alcohol]	–	0.50%	0.50%	0.50%	–	–	–
O=S(=O)([O-])[O-].[Cu+2] [Cu^2+, cupric sulfate]	>32 mM and 32 mM	–	–	–	bacteriostatic	significantly reduced capacity for nitrate reduction	killed a significant portion of the bacterial population
O=[Se]([O-])[O-].[Na+].[Na+] [SeO3^2−, Sodium selenite]	–	>16 mM	>16 mM	>16 mM	–	–	–
